The values below come from US20070254894A1, “Novel small molecules with selective cytotoxicity against human microvascular endothelial cell proliferation” (priority 2006, published 2007).

Data set [1] relates to HMVEC cells stimulated with VEGF 165. In words: VEGF driven HMVEC proliferation screen. Type of data set: cell-based. Here is the method:
(§1) HMVEC cells were plated on collagen-coated plates at 2500 cells/well for 24 hours. Various concentrations of test compounds were then added to duplicate plates. […] Anti-FGF antibody (final concentration of 5 μg/mL) was added to four control wells as a standard inhibitor. At the same time the compounds were added, a T-zero plate was generated (Alamar blue was added to a plate and read after three hours). The plates with the compounds were incubated for one hour at 37° C., 5% carbon dioxide. At this point, b-FGF was added (final concentration of 2.5 ng/mL). Tween-20 (10 μL) was added to four additional control wells to represent total death and the plates were returned to the carbon dioxide incubator for 6 days.
The assay was run identically using VEGF in place of b-FGF. The final concentration of VEGF 165, in this mode, was 10 ng/mL. The control inhibitor was anti-VEGF antibody (final concentration of […]). All other conditions were the same.

The test system of data set [2] is HMVEC cells stimulated with b-FGF. The data set can be described thus: b-FGF driven HMVEC proliferation screen. Type of data set: cell-based. As for the experimental part: as §1
The nature of data set [3]: in vitro. The conditions noted are these: human, primary human dermal fibroblasts, D. Fibroblast LC50, 6 days, Alamar blue. Here is the method:
(§2) In parallel with the VEGF and FGF screens, a normal cell toxicity assay was run. Primary Human Dermal Fibroblasts (Clonetics) were plated at 5000 cells/well. After 24 hours various concentrations of test compounds, were added in duplicate plates and 10% Tween-20 was added to four control wells to represent total death. At the same time a T-zero plate was generated. The plates were returned to the carbon dioxide incubator and on day 6 Alamar blue was added and the plates read after 3 hours.
(§3) Using a T-zero plate allows the observation of compounds that cause the cells to become static as well as inhibit growth.
For orientation: Resazurin is reduced to fluorescent resorufin, in cell work by metabolically active cells.

The subject of data set [4] is retinal neovascularization. The data set can be described thus: Mouse model of oxygen induced retinopathy (OIR), intravitreal administration. Type of data set: in vivo, C57BL/6 mouse. The conditions noted are these: for amount of neovascularization: intravitreal once on day 12, 30 mg/ml, eyes examined day 17, versus controls; for pupils of treated animals: for the duration of the study. Here is the method: Seven day old neonatal C57BL/6 mouse pups and their nursing dam were placed in an isobaric chamber that maintains a 75% oxygen level. The pups were returned to a normoxic environment at 12 days of age. The test articles and vehicle controls were administered intravitreally (once on day 12). Approximately one half of the pups from each litter were injected, the remaining pups were used as controls. Pups were euthanized on day 17 and their left/treated eye is processed for histological sectioning. […] The degree of neovascularization was measured by examining serial sections of the eye taken at 100 micron intervals. The numbers of endothelial nuclei that were internal but contiguous to the inner limiting membrane were counted. The number of nuclei from test article treated animals was compared with those counted in control animals. [table]

The subject of data set [5] is Primary Human Dermal Fibroblasts. The data set can be described thus: in vitro. The conditions noted are these: read-out: D. Fibroblast LC50; 6 days, Alamar blue. Here is the method:
as §2, §3

Where [6] appears, read: Homo sapiens, HMVEC, 144 h, VEGF 165 10 ng/mL, 6 days, Alamar blue, read-out: VEGF LC50.
The mark [7] stands for this setting: Homo sapiens, HMVEC, 144 h, b-FGF 2.5 ng/mL, 6 days, Alamar blue, read-out: b-FGF LC50.

Read-outs that look alike come from different tables or passages of the source. Bounds are passed on as bounds.

Consider `Cc1cccnc1C(=O)Nc1ccc(N2CCOCC2)c2cccnc12` [Compound 50], for which the CC50 came out at 110 nM in data set [1] (setting [6]) and 74 nM in data set [2] (setting [7]). This compound also gave a CC50 at 6 days in data set [3] of over 10000 nM.
For `COc1cc(NC(=O)c2cc(N3CCOCC3)ccn2)c2ncccc2c1` [Compound 53] the same measures were 30 nM, 28 nM and over 10000 nM.
For `CN1CCN(c2ccc(NC(=O)c3ccccn3)c3ncccc23)CC1` [Compound 98], the amount of neovascularization result in data set [4] is reported as “a decrease in the amount of neovascularization”. For the same compound, the “pupils of treated animals” value in data set [4] (intravitreal) is reported as “markedly dilated”. The CC50 in data set [1] (setting [6]) came to 33 nM; in data set [2] (setting [7]) it was 36 nM. This compound came in with a CC50 at 6 days in data set [3] of over 10000 nM.
In the case of `COc1cc(NC(=O)[C@@H]2CCCN2C)c2ncccc2c1` [Compound 66], the CC50 in data set [1] (setting [6]) and in data set [2] (setting [7]) was 240 nM throughout. The same compound returned a CC50 at 6 days in data set [3] of over 10000 nM.
Consider `CCCN1CCC[C@H]1C(=O)Nc1cccc2cccnc12` [Compound 62], for which the CC50 in data set [1] (setting [6]) came to 1300 nM; in data set [2] (setting [7]) it was 1200 nM. Besides, the CC50 at 6 days in data set [3] was over 10000 nM.
For `CC(C)N1CCC[C@H]1C(=O)Nc1cccc2cccnc12` [Compound 64] the same measures were 6400 nM, 5200 nM and over 10000 nM.
The like results for `Cc1cc(NC(=O)c2ccccn2)c2ncccc2c1Br` [Compound 16, pyridine-2-carboxylic acid (5-bromo-6-methyl-quinolin-8-yl)-amide] were, in that order, 380 nM, 380 nM and over 10000 nM.
For `CN1CCC[C@H]1C(=O)Nc1ccc(N2CCOCC2)c2cccnc12` [Compound 68] the same measures were 430 nM, 820 nM and over 10000 nM.
`Cc1cc(NS(=O)(=O)c2ccccn2)c2ncccc2c1C` [Compound 75, pyridine-2-sulfonic acid (5,6-dimethyl-quinolin-8-yl)-amide]: the CC50 worked out at 190 nM in data set [1] (setting [6]) and 160 nM in data set [2] (setting [7]). Moreover, in data set [3], the CC50 at 6 days was over 10000 nM.
Consider `C[C@@H](C(=O)Nc1cccc2cccnc12)N(C)C` [Compound 60], for which the values for the CC50 in data set [1] (setting [6]) and in data set [2] (setting [7]) were 730 nM and 520 nM, respectively. Also, the CC50 at 6 days in data set [3] was over 10000 nM.
Take `O=C(Nc1ccc(N2CCOCC2)c2cccnc12)c1ccccn1` [Compound 9]: in data set [4], the amount of neovascularization result was “a decrease in the amount of neovascularization”. In addition, in data set [4] (intravitreal, 30 mg/ml, FIG. 1 and FIG. 2), the “effect on neovascularization, Compound 9 compared with Compound 98” value is recorded as “A greater effect”. In data set [4] (intravitreal), the “pupils of treated animals” value is “markedly dilated”. Besides, the CC50 in data set [1] is 35 nM; in data set [2], 37 nM; in data set [5], over 10000 nM.
For `O=C(Nc1cccc2nccnc12)c1ccccn1` [Compound 94], the CC50 in data set [1] (setting [6]) was 280 nM; in data set [2] (setting [7]), 290 nM. Further, the CC50 at 6 days in data set [3] is over 10000 nM.
For `O=C(Nc1cccc2cccnc12)c1cc(Sc2ccccc2)ccn1` [Compound 31, 4-phenylsulfanylpyridine-2-carboxylic acid quinolin-8-ylamide] the same measures were 170 nM, 150 nM and over 10000 nM.
The like results for `CN1CCCC[C@@H]1C(=O)Nc1cccc2cccnc12` [Compound 70] were, in that order, 3900 nM, 2800 nM and over 10000 nM.
The like results for `CN(C)[C@@H](Cc1ccccc1)C(=O)Nc1cccc2cccnc12` [Compound 59] were, in that order, 1200 nM, 1100 nM and over 10000 nM.
Turning to `O=C(CN1CCCC1)Nc1cccc2cccnc12` [Compound 56], the CC50 amounted to 1300 nM in data set [1] (setting [6]) and 1400 nM in data set [2] (setting [7]). In data set [3], this compound returned a CC50 at 6 days of over 10000 nM.
The like results for `O=C(Nc1cccc2cccnc12)[C@@H]1CCCN1` [Compound 57, (S)-pyrrolidine-2-carboxylic acid quinolin-8-ylamide] were, in that order, 1300 nM, 1200 nM and over 10000 nM.
The like results for `O=C(Nc1cc(Cl)c(Cl)c2cccnc12)c1ccccn1` [Compound 97] were, in that order, 250 nM, 250 nM and over 10000 nM.
The like results for `O=S(=O)(Nc1cc(Cl)c(Cl)c2cccnc12)c1ccccn1` [Compound 109] were, in that order, 450 nM, 340 nM and over 10000 nM.
On to `O=C(Nc1cccc2cccnc12)c1cc(N2CCC(N3CCCC3)CC2)ccn1` [Compound 103], for which the CC50 stood at 33 nM in data set [1] (setting [6]) and 38 nM in data set [2] (setting [7]). In data set [3], this compound showed a CC50 at 6 days of 4300 nM.
As for `O=C(Nc1cccc2cccnc12)c1cc(Cl)ccn1` [Compound 22, 4-chloropyridine-2-carboxylic acid quinolin-8-ylamide], the CC50 was found to be 100 nM in data set [1] (setting [6]) and 130 nM in data set [2] (setting [7]). The compound further yielded a CC50 at 6 days in data set [3] of over 10000 nM.
Take `CN1CCCN(c2ccnc(C(=O)Nc3cccc4cccnc34)c2)CC1` [Compound 102]: the values for the CC50 in data set [1] (setting [6]) and in data set [2] (setting [7]) were 24 nM and 31 nM, respectively. Also, the CC50 at 6 days in data set [3] is over 10000 nM.
